{"source": "paper PMC6585474", "about": "“In vitro and in vivo Human Metabolism of (S)-[^18F]Fluspidine – A Radioligand for Imaging σ1 Receptors With Positron Emission Tomography (PET)” (Frontiers in Pharmacology, 2019)", "key": {"[1]": {"conditions": "RLM, NADPH, after 30 min; ref Wiese et al., 2016; cited from earlier work"}, "[2]": {"set-up": "method as in Wiese et al., 2016", "conditions": "mouse plasma, 30 min post injection; ref Wiese et al., 2016; cited from earlier work"}, "[3]": {"set-up": "method as in Wiese et al., 2016", "conditions": "mouse brain, 60 min post injection; ref Wiese et al., 2016; cited from earlier work"}, "[4]": {"assay": "Time- and concentration-dependent microsomal transformation of (S)-[^18F]1 (HLM, NADPH, radio-HPLC)", "type": "in vitro ADME, human", "conditions": "37°C; for unchanged radioligand: after 30 min incubation; for time at which 50% of unchanged (S)-[^18F]1 could be detected: HLM", "protocol": "Respective amounts of a solution of (S)-1 of 0.1 mg/mL [<1 μM (referring to estimated molar activity; no addition of carrier), 2, and 20 μM] in acetonitrile were put into test tubes and the solvent was evaporated using the DB-3D TECHNE Sample Concentrator (Biostep, Jahnsdorf, Germany) at room temperature under a stream of nitrogen. PBS and HLM (1 mg/mL) and ∼5 MBq (S)-[^18F]1 (molar activity: 17 GBq/μmol, at the start of incubations) in 100 μl PBS were added, mixed vigorously, and pre-incubated at 37°C for 3 min. Analogously pre-incubated NADPH (2 mM) was added and mixtures were shaken gently at 37°C using the BioShake iQ (QUANTIFOIL Instruments, Jena, Germany). After 0, 2, 5, 10, 15, 20, 30, 40, 50, and 60 min, samples of 20 μL were taken and added to 80 μL cold acetonitrile (-20°C), followed by vigorous shaking (30 s), cooling on ice (4 min), and centrifugation at 14,000 rpm (10 min). Supernatants (90 μL) were diluted with water (30 μL) and immediately analyzed by radio-HPLC (system II).\nSystem II: Analyses of samples from microsomal incubations to determine time and concentration dependency of microsomal transformation were performed on a JASCO X-LC system (JASCO Labor- und Datentechnik) equipped with a UV/Vis detector UV-2070 (monitoring at 210 nm) and a radioactivity flow detector GABI Star (raytest Isotopenmessgeräte, Straubenhardt, Germany) including NaI detector (2 × 2″ pinhole, 16 mm × 30 mm). […] The isocratic solvent system consisted of water/acetonitrile 40:60 (v/v), containing NH4OAc (20 mM). Unchanged (S)-[^18F]1 eluted at a retention time of 4.1 min, whilst formed radiometabolites eluted at 0.6–2.2 min. The percentages of unchanged (S)-[^18F]1 were calculated from HPLC data as follows: Fraction of (S) - [^18F]1(%) = Peak area(S)-[18F]1/(Peak area(S)-[18F]1 + Peak arearadiometabolites) × 100%\nIn order to obtain basic information about the metabolic stability in vitro, the time course of the degradation of (S)-[^18F]1 was investigated in presence of different concentrations of (S)-1 [no-carrier-added (n.c.a., <1 μM) and carrier-added: 2 and 20 μM]. For that purpose, incubations were performed in PBS with HLM and NADPH at 37°C. At defined time points (until 60 min) samples were taken and added to cold acetonitrile to terminate the incubations. After centrifugation, the fractions of remaining (S)-[^18F]1 were determined by radio-HPLC."}, "[5]": {"assay": "Incubation of (S)-1 with HLM (NADPH, UDPGA) and detection of metabolites by LC-MS/MS", "type": "in vitro ADME, human", "conditions": "37°C, 120 min, LC-MS/MS (MRM)", "protocol": "In the following, the final concentrations are provided in brackets. For incubations of (S)-[^18F]1 together with (S)-1 under conditions for oxidation and glucuronidation, a solution of (S)-1 of 0.1 mg/mL (2 μM) in acetonitrile was put into test tubes and the solvent was evaporated using the DB-3D TECHNE Sample Concentrator (Biostep) at room temperature under a stream of nitrogen. HLM (1 mg/mL) and alamethicin (50 μg/mL, from methanolic solution) were mixed ([Fisher et al., 2000]), kept on ice for 15 min and added to the test tubes. PBS, ∼5 MBq (S)-[^18F]1 in 20 μL PBS, and MgCl2 (2 mM) were added, mixed vigorously and the mixture was pre-incubated at 37°C for 3 min. After addition of analogously pre-incubated NADPH (2 mM) and UDPGA (5 mM), the incubations were continued by gentle shaking at 37°C for 120 min using the BioShake iQ (QUANTIFOIL Instruments). After termination by adding 1.0 mL of cold acetonitrile (-20°C) and vigorous mixing for 30 s, the mixtures were stored at 4°C for 5 min. […]\nFor selective detection of metabolites, MRM transitions, which covered products of, e.g., debenzylation, defluorination, single, and multiple oxygenations as well as single and multiple glucuronidation of (S)-1 or its intermediate metabolites, were monitored. After incubation of (S)-1 with HLM in presence of NADPH a series of metabolites (M1–M10) could be detected (Figure 4 and Table 1)."}, "[6]": {"conditions": "human, in vivo", "quoted_text": "After injection of 244.6-290.4 MBq (mean: 265.5 MBq) of (S)-[^18F]1 into 8 healthy controls arterial blood samples (∼16 mL) were withdrawn at 10, 20, and 30 min. […] After 90 or 120 min, urine (∼8 mL) was collected and stored on ice. Plasma was obtained by centrifugation of blood samples at 7,000 rpm (UNIVERSAL 320 R, Hettich, Germany) for 7 min. Protein precipitation and extraction with acetonitrile was conducted as follows. Method A: 10 × 1.6 mL cold acetonitrile (-35°C) were added to 10 × 400 μL plasma, shaken for 3 min, cooled at 4°C for 5 min and centrifuged at 7,000 rpm (Eppendorf Centrifuge 5424) for 5 min. Supernatants were collected and the precipitates were extracted with 1.6 mL acetonitrile each. The combined supernatants were concentrated at 70°C under a flow of nitrogen (Sample Concentrator DB-3D TECHNE) to provide residual volumes of 40–70 μL, which were reconditioned by adding water to obtain samples of 100 μL, which were immediately analyzed by radio-HPLC (system I). Method B: similar to method A, using 2 × 8 mL cold acetonitrile (-35°C) and 2 × 2 mL plasma. After centrifugation, the precipitates were extracted with 2 × 4 mL acetonitrile.\nSystem I: Analyses were performed on a JASCO LC-2000 system (JASCO Labor- und Datentechnik, Gross-Umstadt, Germany) including a UV-2070 UV–VIS detector (monitoring at 210 nm) online with a GABI Star radioactivity flow detector (raytest Isotopenmessgeräte, Straubenhardt, Germany) with a NaI detector (2 × 2″ pinhole, 16 mm × 30 mm). Chromatographic separations were achieved using a Multospher 120 RP 18 AQ-5μ-column, 250 mm × 4.6 mm, 5 μm, including pre-column, 10 mm × 4 mm (CS-Chromatographie Service, Langerwehe, Germany). The solvent system consisted of eluent A: water/acetonitrile, 95:5 (v/v), containing NH4OAc (20 mM) and eluent B: water/acetonitrile, 20:80 (v/v), containing NH4OAc (20 mM). […]\nUrine samples, taken after 90 or 120 min post injection were measured by radio-HPLC without further preparation."}, "[7]": {"conditions": "in vivo, cited from earlier work"}, "[8]": {"conditions": "rhesus monkey, in vivo; cited from earlier work"}, "[9]": {"tested_on": "β-glucuronidase (Helix pomatia type H-3)", "assay": "β-Glucuronidase cleavage of microsomal-formed metabolite M12", "type": "in vitro ADME", "conditions": "acetate buffer pH 4.5–5.0, 37°C, 2 h; M5 the only product observed", "protocol": "In order to investigate the cleavage of formed glucuronides (see section “β-Glucuronidase Cleavage of Microsomal-Formed Metabolite M12”), microsomal incubation of (S)-1 was performed in quadruplicate with higher amounts of the substrate and the reagents as follows (final concentrations in brackets): (S)-1 (200 μM), HLM (2 mg/mL), NADPH (4 mM), MgCl2 (5 mM), alamethicin (0.1 mg/mL), UDPGA (10 mM). After addition of acetonitrile, resulting mixtures were combined and further processing was proceeded as described above. The obtained sample was separated chromatographically using the HPLC system I (Section “Radio-HPLC”) with UV monitoring at 210 nm. […]\nTo 10 μL of a solution of metabolite M12 (Section “Incubation of (S)-[^18F]1 and Non-radioactive References for Identification of in vitro Metabolites and Radiometabolites”), 32 μL acetate buffer (NaOAc/AcOH, 100 mM, pH 4.5–5.0), and 8 μL β-glucuronidase from Helix pomatia Type H-3 (aqueous solution, ≥90,000 units/mL, final: ≥14,400 units/mL) were added. […] After centrifugation at 14,000 rpm (Eppendorf Centrifuge 5424) for 15 min, 40 μL of the supernatant was diluted with 60 μL of water and analyzed by LC-MS/MS monitoring the MRM transitions m/z 518.2/342.2 (as for glucuronides of mono-oxygenated metabolites, e.g., M12) and 342.2/91.1 (as for mono-oxygenated metabolites, e.g., M5)."}, "[10]": {"conditions": "HLM 1 mg/mL, PBS, n.c.a. (<1 μM)"}}, "note": "Where two headings read alike, the source gives them in different places."}
{"smiles": "FCCC1OC2(CCN(Cc3ccccc3)CC2)c2ccccc21", "note": "(racemic) [rac-1, racemic fluspidine]", "values": [{"measurement": "stability (intact compound)", "setting": "[1]", "result": "~13", "unit": "%"}]}
{"smiles": "[17F]CCC1OC2(CCN(Cc3ccccc3)CC2)c2ccccc21", "note": "(racemic) [rac-[^18F]1, racemic [^18F]fluspidine]", "values": [{"measurement": "fraction of unchanged rac-[^18F]1 in plasma", "setting": "[2]", "result": "89 ± 3", "unit": "%"}, {"measurement": "unchanged radioligand in brain", "setting": "[3]", "result": 98, "unit": "%"}]}
{"smiles": "FCC[C@@H]1OC2(CCN(Cc3ccccc3)CC2)c2ccccc21", "note": "[(S)-1, 1′ -benzyl-3-(2-fluoroethyl)-3H-spiro[2-benzofuran-1,4′ -piperidine]]", "values": [{"measurement": "unchanged radioligand", "setting": "[4]; [10]", "result": 14, "unit": "%"}, {"measurement": "defluorination", "setting": "[5]", "result": "not observed"}]}
{"smiles": "[18F]CC[C@@H]1OC2(CCN(Cc3ccccc3)CC2)c2ccccc21", "note": "[(S)-[^18F]1, (S)-[^18F]fluspidine]", "values": [{"measurement": "unchanged radioligand", "setting": "[4]; [10]", "result": 14, "unit": "%"}, {"measurement": "unchanged (S)-[^18F]1", "setting": "[4]; HLM 1 mg/mL, PBS, n.c.a. (<1 μM), after 60 min", "result": 3, "unit": "%"}, {"measurement": "time at which 50% of unchanged (S)-[^18F]1 could be detected", "setting": "[4]; 2 μM added (S)-1", "result": 10, "unit": "min"}, {"measurement": "time at which 50% of unchanged (S)-[^18F]1 could be detected", "setting": "[4]; 20 μM added (S)-1", "result": 17, "unit": "min"}, {"measurement": "time at which 50% of unchanged (S)-[^18F]1 could be detected", "setting": "[4]; n.c.a. (<1 μM)", "result": 10, "unit": "min"}, {"measurement": "Fraction of (S)-[^18F]1 of the total activity in urine", "setting": "[6]", "result": "0.0–7.9%"}, {"measurement": "Fraction of (S)-[^18F]1 in urine", "setting": "[6]; 90 min", "result": 2.6, "unit": "%"}, {"measurement": "Fraction of (S)-[^18F]1 in urine", "setting": "[6]; 120 min", "result": 2.5, "unit": "%"}, {"measurement": "radioligand remained unchanged in plasma", "setting": "[7]; 16 min", "result": 48, "unit": "%"}, {"measurement": "radioligand remained unchanged in plasma", "setting": "[7]; 0.5 h", "result": 37, "unit": "%"}, {"measurement": "fraction of the total activity in plasma", "setting": "[8]", "result": 50, "unit": "%"}]}
{"smiles": "O=C(O)[C@H]1OC(OC(CF)[C@@H]2OC3(CCN(Cc4ccccc4)CC3)c3ccccc32)[C@H](O)[C@@H](O)[C@@H]1O", "note": "(some centres unmarked) [M12]", "values": [{"measurement": "cleavage by β-glucuronidase", "setting": "[9]", "result": "cleaved completely"}]}
